Laboratory results reported in US7807369B2, “Methods and means for the treatment of HPV induced intraepithelial neoplasia” (Leiden University Medical Center, priority 2005, dated 2010).

Legend:
high-grade VIN = test: Clinical response of high-grade VIN lesions to 5% imiquimod cream; type: in vivo, human
From the text: Twenty-nine women with high-grade VIN (age range, 24-73 years; median age, 47 years) were recruited from the departments of gynecology of the Academic Medical Center, and Leiden and Erasmus University Medical Center, The Netherlands. On the average, these patients had been diagnosed with VIN3 5,4 years before enrollment in the study (range, 6 months-15 years). Eighteen women had undergone previous treatments for VIN3 (surgical excision, laser therapy or imiquimod treatment (#21, 24, 27)) before study entry.
(§1) Seventeen of these 29 subjects (age 29-60 years, median 43 years) were experimentally treated with a 5% imiquimod cream. The patients were asked to apply the cream to the affected areas on the vulva twice weekly overnight for a maximum period of 16 weeks. In order to analyze the effect of imiquimod treatment on the HPV16-specific immune response, we collected serial blood and serum samples before the start of imiquimod treatment (T=0), after 8 weeks of treatment (T=8), and at the end of treatment (T=16). Vulvar lesions were assessed by direct measurement and photographic records at entry, and after 8 and 16 weeks of treatment. Clinical responses were defined as a complete response (CR), a partial response type1 (PR1), as defined by a reduction in lesion diameter from 76-99%, a partial response type2 (PR2), as defined by a reduction in lesion diameter from 26-75%, or no clinical response.
Statistical analysis of the HPV16-specific proliferative responses associated with cytokine production was performed using Fisher's exact test. Fisher's Exact test (2-tailed) was used to analyze HPV-specific immunity to clinical response upon treatment with imiquimod. Statistical analyzes were performed using Graphpad Instat Software (version 3.0).

[1] = system: HPV16-specific IFNγ-producing T-cells; test: HPV16-specific T-cell reactivity by IFNγ ELISPOT before, during and after imiquimod treatment; type: in vivo, human; conditions: PBMC at week 0, 8 and 16
From the text: as §1, with “Clinical responses were defined as a complete response (CR), a partial response type1 (PR1), as defined by a reduction in lesion diameter from 76-99%, a partial response type2 (PR2), as defined by a reduction in lesion diameter from 26-75%, or no clinical response.” left out
The number of IFNγ producing HPV-specific T-cells, present in the peripheral blood of the 17 patients treated with imiquimod, was quantified using ELISPOT that was performed as described previously (29; 30). […] Spots were counted with a fully automated computer-assisted-video-imaging analysis system (Bio Sys). Specific spots were calculated by subtracting the mean number of spots+2×SD of the medium control from the mean number of spots in experimental wells provided that the mean number of spots of the medium control wells were either <10 or >10 with a standard deviation <20% of the mean. […]

[2] = system: HPV16 VLP-specific IgG and IgA; test: HPV16 VLP ELISA of serum over time in imiquimod-treated patients; type: in vivo, human; conditions: serum at week 0, 8 and 16; 17 VIN3 patients
Experimental: IgG and IgA reactivity to HPV16 VLPs over time in 17 VIN3 patients treated with imiquimod. At least two serum specimens were tested in every patient. Serological responses are shown at week 0 (before imiquimod treatment), week 8 (during imiquimod treatment) and at week 16 (after imiquimod treatment). The OD values are depicted as median ±SD of positive responses. The OD values were calculated by subtraction of the background response value and the mean OD value of the young children's sera.
as §1, with “response. […]” for “response.”

VIN = conditions: topical treatment of VIN; estimate from refs 17-21; cited from earlier work
[3] = of 17 women treated, 5% cream, max 16 weeks

CC(C)Cn1cnc2c(N)nc3ccccc3c21 [imiquimod, 1-(2-methylpropyl)-1H-imidazo[4,5-c]quinolin-4-amine]
women with overt clinical response (CR or PR1, 76-100% reduction in lesion size) (high-grade VIN; 13 of 17 women with high-grade VIN, 5% cream twice weekly, max 16 weeks): 76% | likelihood of CR or PR1 in patients without an HPV-specific immune response (high-grade VIN; HPV16+ patients (n=15), versus those with a response, p=0.03, 2-sided Fisher's exact test): less likely to show such a clinical improvement | patients with no reduction in size of the affected area of vulvar disease (high-grade VIN; [3]): Three | patients with only minimal improvement upon treatment (high-grade VIN; [3]): one | patients with complete or near complete clinical response (CR or PR1) (high-grade VIN; the 8 HPV16+ patients with an HPV-specific Th1 immune response (of n=15 HPV16+)): 8 patients | effect on numbers of HPV16-specific T-cells [1]: In none of the patients a clear-cut increase of HPV16-specific T-cells was detected | change of HPV16 VLP-specific IgG and IgA response [2]: did not overly change | clinical success rates (VIN): 30-87%
